In article PMC6797481, “Identification of an allosteric binding site on the human glycine transporter, GlyT2, for bioactive lipid analgesics” (eLife, 2019):

Key:
GlyT2 D469A mutant = GlyT2 D469A mutant (Homo sapiens, UniProt Q9Y345, D469A); conditions: read-out: Glycine EC50; glycine transport, GlyT2 D469A (vestibule allosteric site)
Protocol: (§1) Human GlyT1b or GlyT2a (herein referred to as GlyT1 and GlyT2) cDNA were sub-cloned into the plasmid oocyte transcription vector (pOTV). Site-directed mutagenesis was performed using traditional PCR techniques, and sequences confirmed by the Australian Genome Research Facility (Sydney, Australia). WT and mutant plasmid DNA were linearised with SpeI (New England Biolabs (Genesearch) Arundel, Australia) and RNA transcribed by T7 RNA polymerase using the mMessagemMachine kit (Ambion, TX, USA).
(§2) Oocytes were extracted from female Xenopus laevis frogs and detached from follicle cell containing lobes by digestion with 2 mg/mL collagenase A (Boehringer, Mannheim, Germany). Defoliculated stage V-VI oocytes were injected with 4.6 ng of cRNA encoding WT or mutant transporter (Drummond Nanoinject, Drummond Scientific Co., Broomall, PA, USA). Surgical proceedures have been approved by the University of Sydney Animal Ethics Committee (protocol 2016/970). The oocytes were stored at 16–18°C for 2–5 days in ND96 solution (96 mM NaCl, 2 mM KCL, 1 mM MgCl2, 1.8 mM CaCl2, 5 mM HEPES, pH 7.55), supplemented with 2.5 mM sodium pyruvate, 0.5 mM theophylline, 50 µg/mL gentamicin and […] tetracycline.
(§3) 2–5 days following injection, glycine transport currents were measured at −60 mV using Geneclamp 500 amplifier (Axon Instruments, Foster City, CA, USA) with a Powerlab 2/20 chart recorder (ADInstruments, Sydney, Australia) and chart software (ADInstruments). All data were subsequently analysed using GraphPad Prism 7.02 (GraphPad Software, San Diego, CA).
(§4) The function of each mutant transporter was tested by measuring glycine concentration dependent transport currents in ND96 (96 mM Na^+) to drive transport. EC50 values were determined using the modified Michaelis-Menten equation:(1) I=([GIy].Imax)/EC50+[GIy] where I is current (nA), [Gly] is the concentration of glycine, Imax is the current generated by a maximal concentration of glycine (300 µM) and EC50 is the concentration of glycine that generates a half maximal current. Values are presented as mean ± SEM obtained fromn ≥3 cells from at least two batches of oocytes. To determine if mutations affected glycine transport, one way ANOVA tests were employed, with a Dunnett’s post-hoc test used for comparison with WT GlyT2. For L425I comparison with WT GlyT1 a two-tailed t-test was used. Statistical significance were represented as p<0.05 *, p<0.01 **, p<0.001 *** etc. in the following figures.
(§5) Glycine concentration response curves were performed on WT and mutant transporters to generate EC50 values. Transport currents were measured in the presence of increasing concentrations of glycine (1 – 300 μM).

GlyT2 E701A mutant = GlyT2 E701A mutant (Homo sapiens, UniProt Q9Y345, E701A); conditions: read-out: Glycine EC50; glycine transport, GlyT2 E701A (vestibule allosteric site)
GlyT2 E701A mutant, sequence (Q9Y345 whole entry E701A): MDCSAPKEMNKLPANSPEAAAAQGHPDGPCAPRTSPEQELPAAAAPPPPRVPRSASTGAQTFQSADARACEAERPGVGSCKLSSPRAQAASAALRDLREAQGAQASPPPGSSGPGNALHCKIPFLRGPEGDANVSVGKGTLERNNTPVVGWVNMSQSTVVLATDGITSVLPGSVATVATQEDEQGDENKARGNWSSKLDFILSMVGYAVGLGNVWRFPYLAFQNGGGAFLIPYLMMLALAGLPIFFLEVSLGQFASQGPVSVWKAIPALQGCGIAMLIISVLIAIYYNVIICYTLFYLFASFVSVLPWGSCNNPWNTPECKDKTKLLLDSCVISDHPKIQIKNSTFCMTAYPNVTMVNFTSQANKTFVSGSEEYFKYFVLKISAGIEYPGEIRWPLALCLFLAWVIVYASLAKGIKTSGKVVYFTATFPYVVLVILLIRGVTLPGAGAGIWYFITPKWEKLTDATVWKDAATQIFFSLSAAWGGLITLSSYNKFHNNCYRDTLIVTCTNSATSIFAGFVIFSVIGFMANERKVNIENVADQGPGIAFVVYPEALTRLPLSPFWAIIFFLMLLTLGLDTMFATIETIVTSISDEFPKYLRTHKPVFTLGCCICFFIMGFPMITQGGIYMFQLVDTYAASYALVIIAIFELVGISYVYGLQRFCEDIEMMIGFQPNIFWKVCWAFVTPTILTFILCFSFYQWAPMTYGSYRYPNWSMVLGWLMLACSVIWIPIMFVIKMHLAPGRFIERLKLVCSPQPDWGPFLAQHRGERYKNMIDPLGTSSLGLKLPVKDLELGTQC
Protocol: as §1, §2, §3, §4, §5

GlyT2 F569A/V/L mutants = conditions: glycine transport, GlyT2 F569A/V/L (TM8)
Protocol: as §1, §2, §3, §4, §5

GlyT2 P429A mutant = GlyT2 P429A mutant (Homo sapiens, UniProt Q9Y345, P429A); conditions: glycine transport, GlyT2 P429A (TM5)
GlyT2 P429A mutant, sequence (Q9Y345 whole entry P429A): as the sequence (Q9Y345 whole entry E701A) above, with P429A, A701E counted along it
Protocol: as §1, §2, §3, §4, §5

GlyT2 Q473A mutant = GlyT2 Q473A mutant (Homo sapiens, UniProt Q9Y345, Q473A); conditions: read-out: Glycine EC50; glycine transport, GlyT2 Q473A (vestibule allosteric site)
GlyT2 Q473A mutant, sequence (Q9Y345 whole entry Q473A): as the sequence (Q9Y345 whole entry E701A) above, with Q473A, A701E counted along it
Protocol: as §1, §2, §3, §4, §5

GlyT2 S696A mutant = GlyT2 S696A mutant (Homo sapiens, UniProt Q9Y345, S696A); conditions: read-out: Glycine EC50; glycine transport, GlyT2 S696A (vestibule allosteric site)
GlyT2 S696A mutant, sequence (Q9Y345 whole entry S696A): as the sequence (Q9Y345 whole entry E701A) above, with S696A, A701E counted along it
Protocol: as §1, §2, §3, §4, §5

GlyT2 T472A mutant = GlyT2 T472A mutant (Homo sapiens, UniProt Q9Y345, T472A); conditions: glycine transport, GlyT2 T472A (vestibule allosteric site)
GlyT2 T472A mutant, sequence (Q9Y345 whole entry T472A): as the sequence (Q9Y345 whole entry E701A) above, with T472A, A701E counted along it
Protocol: as §1, §2, §3, §4, §5

GlyT2 T634A mutant = GlyT2 T634A mutant (Homo sapiens, UniProt Q9Y345, T634A); conditions: read-out: Glycine EC50; glycine transport, GlyT2 T634A (vestibule allosteric site)
GlyT2 T634A mutant, sequence (Q9Y345 whole entry T634A): as the sequence (Q9Y345 whole entry E701A) above, with T634A, A701E counted along it
Protocol: as §1, §2, §3, §4, §5

[1] = test system: rat model of neuropathic pain; design: method as in Mostyn et al., 2019; conditions: ref Mostyn et al., 2019; cited from earlier work

GlyT2 D469A mutant, sequence (Q9Y345 whole entry D469A): as the sequence (Q9Y345 whole entry E701A) above, with D469A, A701E counted along it

Compound | EC50 (GlyT2 D469A mutant) | EC50 (GlyT2 E701A mutant) | Glycine EC50 (GlyT2 F569A/V/L mutants) | Glycine EC50 (GlyT2 P429A mutant) | EC50 (GlyT2 Q473A mutant) | EC50 (GlyT2 S696A mutant) | Glycine EC50 (GlyT2 T472A mutant) | EC50 (GlyT2 T634A mutant) | analgesia [1] | side effects [1]
NCC(=O)O [Glycine] | 110 ± 12.8 µM | 16.5 ± 0.87 µM | No transport currents | No transport currents | 498 ± 146 µM | 25.6 ± 2.7 µM | No transport currents | 28.6 ± 3.2 µM |  | 
oleoyl d-Lysine |  |  |  |  |  |  |  |  | produces analgesia | minimal side effects
